According to the NIST ThermoML archive (doi:10.1021/je800529x):

Settings: Liquid, Drop weight

O=C=O [carbon dioxide] + O
interfacial tension [mN/m]
Settings | 2000 kPa | 4000 kPa | 6000 kPa | 8000 kPa | 12000 kPa | 17400 kPa | 27000 kPa
293.15 K | 62.4 | 43.5 | 34.9 | 29.1 | 25.1 | 23.2 | 18.9
298.15 K | 62.1 | 45.1 | 36.2 | 30.6 | 26.5 | 24.9 | 21.1
299.15 K | 61.8 | 45.6 | 36.5 | 30.8 | 26.9 | 25 | 21.3
301.15 K | 62 | 46.1 | 37.6 | 32.8 | 27.4 | 25.8 | 22.3
303.15 K | 62.1 | 48.2 | 39.7 | 33.5 | 27.7 | 26.4 | 25.7
305.15 K | 62.5 | 49.1 | 40.7 | 34.8 | 28.6 | 27.4 | 26.1
307.15 K | 61.5 | 38.2 | 31.5 | 27.3 | 18.5 | 16.4 | 16.1
308.15 K | 62.1 | 39.3 | 31.9 | 27.4 | 18.6 | 16.6 | 16.3
309.15 K | 64.9 | 39.6 | 32.1 | 27.5 | 19 | 17.3 | 16.6
314.15 K | 65.2 | 42.9 | 33.2 | 28.5 | 19.9 | 17.8 | 16.9
333.15 K | 66.6 | 52.9 | 43.1 | 37.9 | 31.2 | 29.4 | 28.8
348.15 K | 66.9 | 53.2 | 43.6 | 38.6 | 34.5 | 31.5 | 29.9
373.15 K | 67.7 | 57.9 | 47.5 | 41.7 | 37.6 | 32.9 | 32.1
398.15 K | 68.1 | 58.9 | 50.5 | 44.6 | 39.6 | 36.1 | 33.2
